“And” between values parts separate entries of the source, which are not always exact repeats. Identical values can stand only once.
Tests used:
[1] = tested on: Vitamin D deficient Sprague Dawley rats; assay: Effect of calcium fructoborate on bone density in vitamin D deficient rats; format: in vivo
Protocol: Vitamin D deficient Sprague Dawley rats (21 days old) were divided into three groups and fed a regulated vitamin D deficient diet (0.47% Ca, 0.3% P) over a period of 9 weeks. The diet of the first group was supplemented with calcium fructoborate at 30 mcg/gm, the diet of the second group was supplemented with calcium fructoborate at 185 mcg/gm, and the diet of the third group was left unchanged as a control group. At the end of the test period animals of all three groups were evaluated for increase in vitamin D levels and increase in bone density.

[2] = tested on: serum/plasma concentrations of testosterone, 25-hydroxy vitamin D, and dehydroepiandrosterone; assay: Effect of calcium fructoborate on selected steroids in healthy volunteers; format: in vivo, human; conditions: for DHEA (dehydroepiandrosterone serum/plasma concentration) / TES (Testosterone serum/plasma concentration) / VITD (Vitamin D serum/plasma concentration): individual volunteer
Protocol: A group of healthy volunteers was given after obtaining their informed consent a daily oral dose of 6 mg Calcium fructoborate (as prepared in Example 1 above) for a period of 60 days, and the serum/plasma concentrations of testosterone, 25-hydroxy vitamin D, and dehydroepiandrosterone was determined in an independent clinical laboratory. Table 1 below summarizes the results in which TES refers to ng/ml Testosterone, DHEA refers to mcg/ml dehydroepiandrosterone, and VITD refers to ng/ml Vitamin D. The first number is the serum/plasma concentration at the beginning of the trial while the second number is the serum/plasma concentration after 60 days.

[3] = severely vitamin D deficient rats, 9 weeks
[4] = after 60 days of daily oral 6 mg (second number)
[5] = at the beginning of the trial (first number)
[6] = daily oral 6 mg, 60 days, four volunteers

calcium fructoborate
bone ash increase over the control ([1]; first test group, diet supplemented at 30 mcg/gm, 9 weeks): 1.4%
bone ash increase over the control ([1]; second test group, diet supplemented at 185 mcg/gm, 9 weeks): 5.8%
conservation or biosynthesis of vitamin D [1, 3]: did not conserve or promote biosynthesis of vitamin D
growth of the animals [1, 3]: failed to promote growth of the animals
raising the serum calcium concentration above the control [1, 3]: failed
bone density ([1]; under vitamin D deficiency conditions): increased the bone density
DHEA (dehydroepiandrosterone serum/plasma concentration) [2, 4]: 2.1 mcg/ml (2×) and 4.1 mcg/ml and 2.95 mcg/ml
TES (Testosterone serum/plasma concentration) [2, 4]: 14.1 ng/mL and 8.2 ng/mL and 7.8 ng/mL and 8.0 ng/mL
VITD (Vitamin D serum/plasma concentration) [2, 4]: 9.9 ng/mL and 16.1 ng/mL and 15.8 ng/mL and 12.0 ng/mL
DHEA (dehydroepiandrosterone serum/plasma concentration) [2, 5]: 1.9 mcg/ml (2×) and 3.5 mcg/ml and 2.75 mcg/ml
TES (Testosterone serum/plasma concentration) [2, 5]: 11.9 ng/ml and 6.3 ng/ml and 6.2 ng/ml (2×)
VITD (Vitamin D serum/plasma concentration) [2, 5]: 7.9 ng/mL and 12.1 ng/mL and 11.8 ng/mL and 9.3 ng/mL
serum/plasma concentration of various steroids ([2]; daily oral 6 mg, 60 days): significantly increased
Average increase DHEA [2, 6]: 11%
Average increase TES [2, 6]: 25%
Average increase VITD [2, 6]: 28%

Reference: patent US20050032743A1, “Compositions and method for steroid homeostasis” (priority 2002, published 2005)
